In the CombiSolv-Exp solvation set (Vermeire and Green 2021):

Experiment: solvent given as SMILES

Clc1ccc(-c2ccc(Cl)cc2Cl)cc1
Settings | solvation free energy, 298 K [kcal/mol]
in CCCCCCCCO | -10.7
in O | -2.77

CN(C)Cc1ccccc1
Settings | solvation free energy, 298 K [kcal/mol]
in O | -5.05

OCC1OC(O)C(O)C(O)C1O (stereo not drawn)
Settings | solvation free energy, 298 K [kcal/mol]
in O | -25.5

CCCOC(=O)c1ccccc1O
Settings | solvation free energy, 298 K [kcal/mol]
in O | -3.66

c1ccc2c(c1)OCCOCCOCCOCCOCCO2
Settings | solvation free energy, 298 K [kcal/mol]
in O | -17.9

C=CCCCCC
Settings | solvation free energy, 298 K [kcal/mol]
in C1CCC2CCCCC2C1 | -4.38
in C1CCC(C2CCCCC2)CC1 | -4.33
in C=CCCCCCCCCCCCCCC | -4.16
in CC#N | -3.44
in CCC#N | -4.05
in CCCC#N | -3.78
in CCCCC(CC)COC(=O)CCCCC(=O)OCC(CC)CCCC | -4.03
in CCCCC(CC)COC(=O)c1ccccc1C(=O)OCC(CC)CCCC | -3.78
in CCCCCCC | -4.5
in CCCCCCCCC=CCCCCCCCC(=O)OCC(COC(=O)CCCCCCCC=CCCCCCCCC)OC(=O)CCCCCCCC=CCCCCCCCC | -4.07
in CCCCCO | -3.93
in CCCCOC(=O)c1ccccc1C(=O)OCCCC | -3.98
in CCCCOC(C)=O | -4.28
in CCN1CCCC1=O | -3.73
in CCOC(=O)c1ccccc1C(=O)OCC | -3.53
in CCOC(C)=O | -4.07
in CN1CCCC1=O | -3.46
in CN(C)C=O | -3.36
in CS(C)=O | -2.51
in N#CCCCCC#N | -2.8
in N#Cc1ccccc1 | -3.92
in NC=O | -1.24
in NCCO | -1.63
in Nc1ccccc1 | -3.24
in O | 1.66
in O=C1CCCO1 | -3
in O=CN1CCOCC1 | -2.89
in O=Cc1ccco1 | -3.2
in OCCO | -1.45
in OCCOCCO | -2.1
in OCCOCCOCCO | -2.27
in OCCOCCOCCOCCO | -2.4
in OCc1ccco1 | -3.1
in c1ccc2c(c1)CCCC2 | -4.37
in c1ccc(C2CCCCC2)cc1 | -4.31

CC(=O)OC1CCC2(C)C(=CCC3C2CCC2(C)C(C(C)CCCC(C)C)CCC32)C1 (stereo not drawn)
Settings | solvation free energy, 298 K [kcal/mol]
in O | -5.48

O=C(c1ccccc1)N(O)c1cccc(Cl)c1
Settings | solvation free energy, 298 K [kcal/mol]
in O | -10.9

CC(C)=CCCC1(C)C2CC3C(C2)C31C (stereo not drawn)
Settings | solvation free energy, 298 K [kcal/mol]
in O | 0.55

CCCC1CCCC1
Settings | solvation free energy, 298 K [kcal/mol]
in O | 2.13

Cc1[nH]n(-c2ccccc2)c(=O)c1C(=O)c1ccccc1
Settings | solvation free energy, 298 K [kcal/mol]
in O | -11.6

Nc1ccc(-c2ccc(N)cc2)cc1
Settings | solvation free energy, 298 K [kcal/mol]
in Cc1ccccc1C | -15.7

CCCC(=O)CCC
Settings | solvation free energy, 298 K [kcal/mol]
in CCCCOCCCC | -5.6
in CO | -5.77
in O | -2.92

COC(F)(F)C(Cl)Cl
Settings | solvation free energy, 298 K [kcal/mol]
in O | -1.12

CN(C)CCc1ccc(O)cc1
Settings | solvation free energy, 298 K [kcal/mol]
in C=CCCCCCCC=C | -10.1
in O | -11.3

Cc1ccccc1Cl
Settings | solvation free energy, 298 K [kcal/mol]
in O | -1.14

CCOC(=O)c1ccccc1
Settings | solvation free energy, 298 K [kcal/mol]
in O | -3.74

O=C1CCCCC1
Settings | solvation free energy, 298 K [kcal/mol]
in CCCCCC | -4.98
in CCCCCCC | -5.18
in CCCCCCCCCCCCCCCC | -4.97
in ClC(Cl)(Cl)Cl | -6.23
in ClCCCl | -6.78
in O | -4.91

ClCBr
Settings | solvation free energy, 298 K [kcal/mol]
in C1CCCCC1 | -3.69
in ClC(Cl)(Cl)Cl | -3.93
in c1ccccc1 | -4.32

Oc1ccc(O)cc1
Settings | solvation free energy, 298 K [kcal/mol]
in CCCCCC | -6.25
in CCCCCCCC | -6.58
in CCCCOC(C)=O | -12.2
in CCOC(C)=O | -12.3
in Cc1ccc(C)cc1 | -8.81
in Cc1cccc(C)c1 | -8.88
in Cc1ccccc1C | -8.88
in O | -12.1

C=C1C2CCC(C2)C1(C)C (stereo not drawn)
Settings | solvation free energy, 298 K [kcal/mol]
in O | 0.61

CC(C)CCCCCOC(=O)c1ccccc1C(=O)OCCCCCC(C)C
Settings | solvation free energy, 298 K [kcal/mol]
in O | -6.43

CCN(CC)c1c([N+](=O)[O-])cc(C(F)(F)F)c(N)c1[N+](=O)[O-]
Settings | solvation free energy, 298 K [kcal/mol]
in O | -5.66

CCCCCC#N
Settings | solvation free energy, 298 K [kcal/mol]
in CCCCCCCCCCCCCCCC | -4.68
in CCCCCCCCO | -5.54
in O | -3.28
in [2H]O[2H] | -3.25

CN1C(=O)C(O)N=C(c2ccccc2)c2cc(Cl)ccc21 (stereo not drawn)
Settings | solvation free energy, 298 K [kcal/mol]
in CC(C)O | -18.1
in CCCCCCO | -18.6
in CCCCCO | -18.5
in CCCCO | -18.5
in CCCO | -18.5
in CCO | -18.6
in CN(C)C=O | -20
in CO | -19.1
in O | -15.2
in O=C1CCCCC1 | -19.6

CCCCC(C)(C)O
Settings | solvation free energy, 298 K [kcal/mol]
in CCCCCCCC | -5.29
in CCCCCCCCCC | -5.22

CCCO
Settings | solvation free energy, 298 K [kcal/mol]
in Brc1ccccc1 | -3.66
in C1CCOC1 | -5.22
in C1COCCO1 | -4.52
in C=CCCCCCCCCCCCCCC | -2.96
in CC#N | -4.84
in CC(C)(C)O | -5.55
in CC(C)CC(C)(C)C | -3
in CC(C)CCCC(C)CCCC(C)CCCCC(C)CCCC(C)CCCC(C)C | -2.6
in CC(C)CO | -5.44
in CC(C)O | -5.53
in CC(C)OC(C)C | -4.39
in CCC1CO1 | -5.09
in CCC(C)=O | -4.97
in CCCC(C)O | -5.34
in CCCCC(CC)COC(=O)CCCCC(=O)OCC(CC)CCCC | -4.07
in CCCCCC | -2.99
in CCCCCCC | -2.97
in CCCCCCCC | -2.91
in CCCCCCCCC=CCCCCCCCC(=O)OCC(COC(=O)CCCCCCCC=CCCCCCCCC)OC(=O)CCCCCCCC=CCCCCCCCC | -3.96
in CCCCCCCCCC | -2.76
in CCCCCCCCCCCCCCCC | -2.7
in CCCCCCCCCCO | -4.8
in CCCCCCCCO | -5.02
in CCCCCO | -5.43
in CCCCO | -5.22
in CCCCOC(C)=O | -4.65
in CCCOCCC | -4.2
in CCO | -5.69
in CCOC(=O)c1ccccc1C(=O)OCC | -4.09
in CCOCCO | -5.33
in CCOP(=O)(OCC)OCC | -5.39
in CN1CCCC1=O | -5.69
in CN1CCN(C)C1=O | -5.51
in CN(C)C=O | -5.57
in CO | -5.92
in COC(C)(C)C | -4.6
in COC(C)=O | -4.88
in Cc1ccc(C)cc1 | -3.73
in Cc1cccc(C)c1 | -3.72
in ClC(Cl)(Cl)Cl | -3.53
in Clc1ccccc1 | -3.83
in FC(F)(F)C(F)(F)C(F)(F)C(F)(F)C(F)(F)C(F)(F)C(F)(F)F | -1.69
in FC(F)(F)C(F)(F)C(F)(F)C(F)(F)C(F)(F)C(F)(F)F | -1.74
in NC=O | -4.84
in O | -4.88
in O=CN1CCOCC1 | -5.02
in OCC(O)CO | -4.37
in OCCOCCO | -5.2
in [2H]O[2H] | -4.95
in c1ccccc1 | -3.97

CC1=CCC(C(C)C)c2cc(C)ccc21 (stereo not drawn)
Settings | solvation free energy, 298 K [kcal/mol]
in O | -1.12

COc1ccc(NS(=O)(=O)c2ccc(N)cc2)nn1
Settings | solvation free energy, 298 K [kcal/mol]
in O | -21.1

ClC(Cl)(Cl)Cl
Settings | solvation free energy, 298 K [kcal/mol]
in Brc1cccc2ccccc12 | -3.92
in C1CCCC1 | -4.4
in C1CCOC1 | -4.65
in C1COCCO1 | -4.32
in C=CCCCCCCCCCCCCCC | -3.81
in CC#N | -3.66
in CC(=O)CC(C)C | -4.22
in CC(=O)N(C)C | -4.52
in CC(=O)OCc1ccccc1 | -3.97
in CC(C)(C)O | -3.74
in CC(C)=O | -4.15
in CC(C)CCCC(C)CCCC(C)CCCCC(C)CCCC(C)CCCC(C)C | -3.74
in CCC(C)=O | -4.15
in CCCCCC | -4.14
in CCCCCCC | -4.09
in CCCCCCCC | -3.98
in CCCCCCCCC=CCCCCCCCC(=O)OCC(COC(=O)CCCCCCCC=CCCCCCCCC)OC(=O)CCCCCCCC=CCCCCCCCC | -4
in CCCCCCCCCCCCCC | -3.8
in CCCCCCCCCCCCCCCC | -3.85
in CCCCCCCCCOC(=O)c1ccccc1C(=O)OCCCCCCCCC | -3.85
in CCCCCCCCN(CCCCCCCC)CCCCCCCC | -3.79
in CCCCCCCCO | -3.79
in CCCCCCO | -3.84
in CCCCCN(CCCCC)CCCCC | -3.96
in CCCCCl | -4.28
in CCCCN(C=O)CCCC | -4.11
in CCCCN(CCCC)CCCC | -3.84
in CCCCO | -3.87
in CCCCOC | -4.39
in CCCCOC(C)=O | -4.26
in CCCCOCC | -4.29
in CCCCOCCCC | -4.16
in CCCO | -3.75
in CCCOCCC | -4.25
in CCO | -3.74
in CCOC(=O)c1ccccc1C(=O)OCC | -3.77
in CCOC(C)=O | -4.23
in CCOCC | -4.41
in CI | -4.51
in CN1CCCC1=O | -4.16
in CNC(C)=O | -3.9
in CO | -3.66
in CS(C)=O | -3.66
in CSC | -4.63
in Cc1ccc(C)cc1 | -4.35
in Cc1cccc(C)c1 | -4.29
in Cc1ccccc1C | -4.34
in ClC(Cl)Cl | -4.43
in ClCCCl | -4.15
in NC=O | -2.16
in O | 0.07
in O=C1CCCCC1 | -4.32
in S=C=S | -4.52
in [2H]O[2H] | -0.62
in c1ccc2ncccc2c1 | -4.07
